The structures appear in SMILES notation.

T1 sequence (P9WNS3 whole entry, looked up): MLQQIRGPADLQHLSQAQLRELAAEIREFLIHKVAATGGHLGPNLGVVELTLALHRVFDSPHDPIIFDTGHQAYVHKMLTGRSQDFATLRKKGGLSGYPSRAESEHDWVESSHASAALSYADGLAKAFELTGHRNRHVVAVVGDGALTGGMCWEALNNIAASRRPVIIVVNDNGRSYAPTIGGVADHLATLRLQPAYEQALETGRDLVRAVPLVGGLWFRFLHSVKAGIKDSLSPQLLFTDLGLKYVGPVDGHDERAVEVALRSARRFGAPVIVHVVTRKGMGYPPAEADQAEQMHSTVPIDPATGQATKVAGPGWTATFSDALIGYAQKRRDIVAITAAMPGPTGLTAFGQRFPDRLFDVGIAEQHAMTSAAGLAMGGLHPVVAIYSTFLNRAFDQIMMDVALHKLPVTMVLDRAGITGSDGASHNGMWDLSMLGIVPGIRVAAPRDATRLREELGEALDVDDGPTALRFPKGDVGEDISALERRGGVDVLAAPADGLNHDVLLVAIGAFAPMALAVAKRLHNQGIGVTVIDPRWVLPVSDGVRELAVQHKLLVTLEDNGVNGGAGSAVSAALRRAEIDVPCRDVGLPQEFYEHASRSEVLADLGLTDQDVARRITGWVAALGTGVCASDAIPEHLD

The first experiment has as its target T1, MtDXPS (Mycobacterium tuberculosis, UniProt P9WNS3). Nature of the experiment: biochemical.
Settings: not given
As to `COc1cc(Cl)c(/C=C2\SC(=S)N(CC(=O)O)C2=O)c(OC)c1` [Compound 50], the IC50 (as a rule, the concentration needed to halve the response being measured) was above 240 µM. On the same count and under the same terms, for `NC(Cc1ccc(O)cc1)c1nc2ccccc2[nH]1` (stereo not drawn) [Compound 75] the value was above 1000 µM. For `O=C(O)Cc1ccc(-n2cnnn2)cc1` [Compound 53], the “inhibition at 1000 μM” value is on record as ~ 25 % inhibition. Take `O=Cc1ccc(O[C@@H]2O[C@H](CO)[C@@H](O)[C@H](O)[C@H]2O)cc1` [Compound 82]: the IC50 is above 1000 µM.

Staying with this experiment, now noted: IC50 (μM).
The molecule `Cc1cccc(C(=O)N2CCC(C(N)=O)CC2)c1` [Compound 44] showed an IC50 above 1000 µM.

The same experiment, now with this note: IC50 against MtDXPS.
`Cc1nc(C)c(-c2csc(Nc3cccc(Cl)c3C)n2)s1` [Compound 8] yielded an IC50 of 117 ± 25 µM. Molecule `CC(C)c1ccc(C(C)N2Cc3nc(N)ncc3C2=O)cc1` (stereo not drawn) [Compound 4] returned an IC50 of 1020 ± 88 µM.

The experiment is the same for the next values; noted with them: Table S1, first round of LBVS; MtDXPS; read-out: IC50.
As to `CN(C)Cc1ccc(O)cc1` [Compound 58], the IC50 is above 1000 µM. Same read-out and setting: for `O=c1c2ncccc2nc(O)n1Cc1cccnc1` [Compound 65] the value was above 240 µM; for `CC(C)(CO)NCc1cccs1` [Compound 64], above 1000 µM. The same measure, in the same setting: with `S=c1[nH]ccn1Cc1ccccc1` [Compound 54] the figure was above 500 µM; with `Cc1ccc(C2NC(N)=Nc3nc4ccccc4n32)o1` (stereo not drawn) [Compound 49], above 1000 µM; with `O=C1NC(=O)C(c2ccccc2)N1` (stereo not drawn) [Compound 56], above 1000 µM. The same measure, in the same setting: for `Cc1ccc(-n2c(S)nnc2CCn2nc(C)cc2C)cc1` [Compound 73] the value was above 500 µM.

With `Cc1n[nH]c(O)c1C1OC(=O)c2ccccc21` (stereo not drawn) [Compound 39], the IC50 is above 1000 µM. For `CCCCC(C(=O)O)C(C)CC(=O)Nc1nncs1` (stereo not drawn) [Compound 80], the IC50 was above 1000 µM. On the same count and under the same terms, for `CCn1nccc1CN(C)C(=O)C1CCC1` [Compound 67] the value was above 1000 µM; for `O=C(O)c1cc(O)ccc1C=C(Cl)Cl` [Compound 79], above 1000 µM.

In the case of `Cc1c(/N=C2\C(=O)N(CC(=O)O)c3ccccc32)c(=O)n(-c2ccccc2)n1C` [Compound 84], the IC50 is above 120 µM. On the same count and under the same terms, with `Cc1ccccc1-n1c(S)nnc1-c1csc2c1CCCC2` [Compound 41] the figure was above 8 µM. On the same count and under the same terms, with `COc1ccc(OC)c(C2CC(=O)NC3=C2C(=O)CCC3)c1` (stereo not drawn) [Compound 63] the figure was above 500 µM; with `COc1cc(/C=C2\C(=O)Nc3ccc(Br)cc32)cc(OC)c1O` [Compound 88], above 120 µM.

As to `N=C1NC(=O)C(CC(N)=O)S1` (stereo not drawn) [Compound 57], the IC50 is above 1000 µM.

For the molecule `Oc1ncnc(O)c1C(c1cccs1)c1c(O)ncnc1O` [Compound 43], the half-inhibitory concentration (IC50) is above 500 µM.

For `COc1ccc2[nH]cc(C3NC(N)=Nc4nc5ccccc5n43)c2c1` (stereo not drawn) [Compound 46], the IC50 is above 500 µM. Take `C=CCN1C(=O)N/C(=C/c2ccc(O)c(OCC)c2)C1=O` [Compound 59]: the IC50 was above 30 µM.

Regarding `CCNC(=S)Nc1ccc(Cc2ccncc2)cc1` [Compound 52], the IC50 is above 240 µM.

Turning to `COCC(=O)N(C)Cc1cn(C)nc1C` [Compound 66], the IC50 is above 1000 µM. On the same count and under the same terms, with `COc1ccc(Cn2ccnc2)cc1N` [Compound 70] the figure was above 1000 µM; with `CCC1CCC2(CC1)N=C(O)N(CC(=O)c1ccc3c(c1)CCC3)C2=O` (stereo not drawn) [Compound 71], above 60 µM. On the same count and under the same terms, for `O=C(Nc1ccc(O)cc1C(=O)O)c1ccco1` [Compound 81] the value was above 60 µM. In the case of `Cc1cc(C(=O)O)c(-c2ccccc2)o1` [Compound 55], the IC50 was above 1000 µM. On the same count and under the same terms, with `CCCCC(NS(=O)(=O)c1cc2c3c(c1)c(C)cc(=O)n3CC2)C(=O)O` (stereo not drawn) [Compound 90] the figure was above 60 µM. Same read-out and setting: with `O=C(O)CCc1ccc(-c2ccc(F)cc2)n1Cc1ccco1` [Compound 48] the figure was above 500 µM; with `CN1NC(c2ccc(O)cc2)C2C(=O)NC(=O)C21` (stereo not drawn) [Compound 85], above 120 µM. As to `CCc1cc(C(N)=O)c(NC(=O)c2cccnc2)s1` [Compound 87], the IC50 was above 60 µM.

Take `Cc1sc(N)c(C(=O)c2ccccc2)c1C` [Compound 38]: the IC50 was above 120 µM. The same measure, in the same setting: with `Cc1cc(C)n(CCc2nnco2)n1` [Compound 74] the figure was above 1000 µM; with `CSc1ccc(C2N=C(N)Nc3nc4ccccc4n32)cc1` (stereo not drawn) [Compound 37], above 60 µM. Same read-out and setting: with `Cc1nc(-c2ccccc2)nc(Nc2ccccc2)c1Cc1ccccc1` [Compound 45] the figure was above 15 µM; with `Cc1ccc(C(=O)Nc2ccc(O)cc2C(=O)O)cc1` [Compound 86], above 120 µM. Same read-out and setting: with `OCc1cccnc1-c1nc2ccccc2s1` [Compound 61] the figure was above 60 µM; with `CCCCNC(=O)N(C)Cc1c(C)nn(CC)c1C` [Compound 69], above 1000 µM; with `Nn1c(S)nnc1Cn1cnc2ccccc21` [Compound 51], above 1000 µM. Consider `CC(C)c1ccc(CN(C(=O)COc2ccccc2)c2ccccn2)cc1` [Compound 47], for which the IC50 was above 30 µM.

Turning to `Cc1cc(C)n(CCc2nnc(S)n2-c2ccc(Br)cc2)n1` [Compound 72], the IC50 was above 120 µM. For the molecule `CCn1c(S)nnc1-c1csc2c1CCCC2` [Compound 40], the IC50 was above 240 µM. On the same count and under the same terms, with `CN1C(=O)CCC(C(=O)O)C1c1ccccc1` (stereo not drawn) [Compound 68] the figure was above 1000 µM. As for `O=C1N/C(=C/c2ccc(O)c(I)c2)C(=O)N1c1ccc(Cl)cc1` [Compound 60], the IC50 is above 120 µM. On the same count and under the same terms, with `Cc1nn(CCc2nnc(S)n2Cc2ccccc2)c(C)c1Br` [Compound 42] the figure was above 30 µM; with `CCCSc1nnc(-c2ccccc2NC(C)=O)c(O)n1` [Compound 89], above 120 µM.

The same experiment, now with this note: Table S2, second round of LBVS; MtDXPS; read-out: IC50.
Consider `Nc1ncc2c(n1)CN(Cc1ccccc1C(F)(F)F)C2=O` [Compound 107], for which the half-maximal inhibitory concentration (IC50) is above 380 µM. On the same count and under the same terms, with `O=C1/C(=N\O)c2c(Cl)cccc2N1Cc1ccccc1` [Compound 113] the figure was above 30 µM; with `ON=C(c1ccccc1)c1ccccc1` [Compound 115], above 500 µM. `Cc1ccc(/C(=N\O)c2ccc(O)cc2O)cc1` [Compound 110]: the IC50 was above 1000 µM.

In the case of `O/N=C(/c1ccccc1)c1ccccn1` [Compound 117], the IC50 was above 500 µM.

In the case of `CCCOc1ccc(C2N=C(N)Nc3nc4ccccc4n32)cc1` (stereo not drawn) [Compound 122], the IC50 was above 50 µM. Same read-out and setting: with `OCCc1nc2ccccc2n1Cc1cccc(Cl)c1` [Compound 100] the figure was above 236 µM; with `CC(C)(C)C(O)/C(=N/O)n1cncn1` (stereo not drawn) [Compound 120], above 200 µM. Still for that read-out and setting: with `Cc1sc(-n2c(C)cc(/C=N/O)c2C)c(C(=O)O)c1C` [Compound 118] the figure was above 800 µM; with `CC(C)(C)c1ccc(Cn2c(CCCO)nc3ccccc32)cc1` [Compound 103], above 90 µM; with `NC1=NC(c2ccccc2F)n2c(nc3ccccc32)N1` (stereo not drawn) [Compound 123], above 120 µM. Same read-out and setting: for `Cc1ccc(C)c2c1/C(=N/O)C(=O)N2Cc1ccccc1` [Compound 114] the value was above 60 µM; for `NC1=NC(c2ccc(O)c(O)c2)n2c(nc3ccccc32)N1` (stereo not drawn) [Compound 126], above 160 µM; for `COc1ccc(Cc2nc3ccccc3n2CC(O)CO)cc1` (stereo not drawn) [Compound 105], above 2000 µM. On to `CN(C)c1ccc(C2NC(N)=Nc3nc4ccccc4n32)cc1` (stereo not drawn) [Compound 125], for which the IC50 is above 200 µM. Same read-out and setting: for `Nc1ccncc1/C(=N/O)c1ccccc1` [Compound 116] the value was above 2000 µM; for `CC(C)Cc1nc2ccccc2n1Cc1ccc(Cl)cc1` [Compound 104], above 63 µM; for `CCc1ccc(C2N=C(N)Nc3nc4ccccc4n32)cc1` (stereo not drawn) [Compound 124], above 30 µM. On the same count and under the same terms, with `O/N=C/c1cccn1-c1ccc(Br)cc1` [Compound 121] the figure was above 200 µM; with `Nc1ncc2c(n1)CN(Cc1ccc3c(c1)OCO3)C2=O` [Compound 108], above 260 µM; with `CNc1ncc2c(n1)CN(CCc1ccccc1F)C2=O` [Compound 106], above 340 µM.

On to `O=C1/C(=N\O)c2ccc(Cl)cc2N1Cc1ccccc1` [Compound 112], for which the IC50 is above 900 µM. For `OCCc1nc2ccccc2n1Cc1ccc(F)cc1` [Compound 102], the IC50 is above 540 µM. Still for that read-out and setting: for `COc1ccc(OC/C(=N\O)c2ccc(O)cc2O)cc1` [Compound 111] the value was above 300 µM; for `OCCc1nc2ccccc2n1Cc1ccc(Cl)cc1` [Compound 101], above 440 µM.

The experiment is the same for the next values; noted with them: Table S3, third round of LBVS; MtDXPS; read-out: IC50.
Regarding `Cc1nc(NC(=O)c2ccccc2)sc1-c1csc(Nc2ccc(C(F)(F)F)cc2)n1` [Compound 133], the IC50 was above 120 µM. Same read-out and setting: for `FC(F)(F)c1ccc(Nc2nc(-c3ccncc3)cs2)cc1` [Compound 132] the value was above 60 µM; for `Cc1ccc(-c2csc(Nc3cccc(Cl)c3C)n2)cc1` [Compound 134], above 16 µM; for `Cc1c(Cl)cccc1Nc1nc(-c2cccnc2)cs1` [Compound 135], above 200 µM.

In the next experiment the target is T1, MtDXPS. Kind of experiment: biochemical. The settings on record: Table 1A, indole derivatives, MtDXPS; read-out: K i*.
Take `OCc1cn(Cc2cccc(Cl)c2)c2ccccc12` [Compound 15]: the Ki is above 10 µM. On the same count and under the same terms, with `COc1cccc2c(CO)cn(Cc3ccc(Cl)c(Cl)c3)c12` [Compound 19] the figure was 1.4 ± 0.3 µM. On to `N#Cc1ccc2c(CO)cn(Cc3ccc(Cl)c(Cl)c3)c2c1` [Compound 18], for which the Ki worked out at 1.7 ± 0.3 µM. Take `OCc1cn(Cc2ccc(Cl)cc2)c2ccccc12` [Compound 16]: the Ki stood at 5.5 ± 0.6 µM. On the same count and under the same terms, with `COCc1cn(Cc2ccc(Cl)c(Cl)c2)c2ccccc12` [Compound 14] the figure was above 5 µM.

The experiment is the same for the next values; noted with them: Table 1B, oxime derivatives, MtDXPS; read-out: K i*.
`CO/N=C(\Cc1ccc(Cl)cc1)c1ccc(O)cc1O` [Compound 20]: the Ki is above 10 µM.

The same experiment, now with this note: Table 1C, aminothiazole derivatives, MtDXPS; read-out: K i*.
As to `Cc1nc(N)sc1-c1csc(Nc2ccc(Cl)cn2)n1` [Compound 30], the Ki came out at 0.3 ± 0.1 µM. The same measure, in the same setting: for `Cc1nc(N)sc1-c1csc(Nc2ccccc2C(F)(F)F)n1` [Compound 27] the value was 0.3 ± 0.02 µM; for `Cc1nc(N)sc1-c1csc(Nc2cccc(C(F)(F)F)c2)n1` [Compound 28], 0.4 ± 0.06 µM; for `Oc1ccc(-c2csc(Nc3cccc(C(F)(F)F)c3)n2)c(O)c1` [Compound 29], 0.5 ± 0.04 µM.

(Values after PMC9491098, “Discovery of novel drug-like antitubercular hits targeting the MEP pathway enzyme DXPS by strategic application of ligand-based virtual screening” (Chemical Science, 2022).)
